Data: PMC7904550, “Application of grouping and read-across for the evaluation of parabens of different chain lengths with a particular focus on endocrine properties” (Archives of Toxicology, 2021)

How the values were obtained:
bacteria = conditions: cited from earlier work
Wistar rats [1] = experiment: 90-day repeated dose oral toxicity study (OECD TG 408); type: in vivo, rat; conditions: for NOAEL, 90-day repeated-dose toxicity: OECD 408 v 2018, oral gavage
From the text: (§1) Healthy and specific pathogen-free male and female (non-pregnant and nulliparous) Wistar Crl: WI(Han) rats were obtained from Charles River Laboratories (Germany). […] Upon arrival at BSL BIOSERVICE, the animals underwent an acclimatisation period of at least 5 days, and they were approximately 15–16 weeks old at the onset of the treatment period.

Wistar rats [2] = experiment: Extended one-generation reproductive toxicity study (OECD TG 443); type: in vivo, rat; conditions: for NOAEL, EOGRTS: developmental and reproductive toxicity: OECD 443 v 2018, oral gavage
From the text: as §1

in vivo = conditions: for concentration at 1 h / Tmax / AUC(0-t) / Cmax: Wistar, rat, serum; for concentration at 1 h: oral; for Tmax / AUC(0-t) / Cmax: po; for AUC(0-t) / Cmax / AUC0-1 h/AUC0–t / C1h/Cmax / Clast / tlast: parent compound
Experimental: These studies were conducted similarly to OECD TG 417 applying 500 and 1000 mg/kg body weight (bw) test item via oral gavage to 10 males and 10 females per dose group. Focus of the toxicokinetic evaluation was on the measurement of the serum concentrations of the parent compounds and their (common) major metabolite p-hydroxybenzoic acid by […] in order to assess the systemic uptake and elimination of the parent compounds and this major metabolite [see also ECHA ([2017a])]. The limit of quantification was determined as 10 ng/mL for all parabens, and as 130 ng/mL for p-hydroxybenzoic acid. […] On account of these major aims, investigations of the faeces and urine were not included in the toxicokinetics screening studies.

## CCCOC(=O)c1ccc(O)cc1 [Propyl paraben, Propyl 4-hydroxybenzoate]
bacteria
  Mutagenicity in bacteria classification: Not mutagenic [c] (OECD 471; 2018)
Wistar rats [1]
  NOAEL, 90-day repeated-dose toxicity: NOAEL: 1000 (OECD 408; v 2018) mg/kg body weight/day
Wistar rats [1]; listed as propyl paraben
  NOAEL, 90-day repeated-dose toxicity: 1000 mg/kg body weight/day
Wistar rats [1]; P0
  Accessory sex organs HP: NAE / NAE
  Adrenals HP: NAE / NAE
  Adrenals weight: NAE / NAE
  Brain weight: NAE / NAE
  Cervix HP: NAE / NAE
  Coagulating gland HP: NAE / NAE
  Coagulating gland weight: NAE / NAE
  Epididymis HP: NAE / NAE
  Epididymis weight: NAE / NAE
  Liver weight: NAE / NAE
  Mammary gland HP; females: NAE / NAE
  Mammary gland HP; males: NAE / NAE
  Oestrus cyclicity: NAE / NAE
  Ovary HP: NAE / NAE
  Ovary weight: NAE / NAE
  Oviduct HP: NAE / NAE
  Pituitary HP: NAE / NAE
  Pituitary weight: NAE / NAE
  Prostate HP: NAE / NAE
  Prostate weight: NAE / NAE
  Seminal vesicles HP: NAE / NAE
  Seminal vesicles weight: NAE / NAE
  Testis HP: NAE / NAE
  Testis weight: NAE / NAE
  Thyroid HP: NAE / NAE
  Thyroid stimulating hormone level: NAE / NAE
  Thyroid weight: NAE / NAE
  Triiodothyronine / thyroxine level: NAE / NAE
  Uterus HP (with cervix): NAE / NAE
  Uterus weight (with cervix): NAE / NAE
  Vagina HP: NAE / NAE
  Vaginal smears: NAE / NAE
Wistar rats [1]; sub-chronic (90-day) oral application
  Signs of systemic toxicity: did not induce any signs of systemic toxicity
Wistar rats [2]; DIT cohort
  Developmental immunotoxicity (DIT): did not exhibit
Wistar rats [2]; DNT cohort
  Developmental neurotoxicity (DNT): did not exhibit DNT
Wistar rats [2]
  NOAEL, EOGRTS: developmental and reproductive toxicity: NOAEL: 1000 (OECD 443; v 2018) mg/kg body weight/day
Wistar rats [2]; listed as propyl paraben
  NOAEL, EOGRTS: developmental and reproductive toxicity: 1000 mg/kg body weight/day
Wistar rats [2]; P0, F1, (F2)
  Accessory sex organs HP: NAE / NAE
  Adrenals HP: NAE / NAE
  Adrenals weight: NAE / NAE
  Age at balano-preputial separation: NAE / NAE
  Age at vaginal opening: NAE / NAE
  Anogenital distance: NAE / NAE
  Auditory startle: NAE / NAE
  Brain HP: NAE / NAE
  Brain morphometric evaluation: NAE / NAE
  Brain weight: NAE / NAE
  Cervix HP: NAE / NAE
  Coagulating gland HP: NAE / NAE
  Coagulating gland weight: NAE / NAE
  Colloid area (thyroid HP): NAE / NAE
  Dystocia: NAE / NAE
  Epididymis HP: NAE / NAE
  Epididymis weight: NAE / NAE
  Fertility: NAE / NAE
  Foetal development: NAE / NAE
  Functional observation battery: NAE [h] / NAE
  Gestation length: NAE / NAE
  Litter size: NAE / NAE
  Litter viability: NAE / NAE
  Liver weight: NAE / NAE
  Mammary gland HP; females: NAE / NAE
  Mammary gland HP; males: NAE / NAE
  Motor activity: NAE / NAE
  Nipple development: NAE / NAE
  No. of implantations, corpora lutea: NAE / NAE
  No. of live births: NAE / NAE
  No. of ovarian follicles: NAE / NAE
  Oestrus cyclicity: NAE / NAE
  Offspring: learning & memory: NAE / NAE
  Ovary HP: NAE / NAE
  Ovary weight: NAE / NAE
  Oviduct HP: NAE / NAE
  Pituitary HP: NAE / NAE
  Pituitary weight: NAE / NAE
  Postimplantation loss: NAE / NAE
  Presence of anomalies (external, visceral, skeletal): NAE / NAE
  Prostate HP: NAE / NAE
  Prostate weight: NAE / NAE
  Pup development: NAE / NAE
  Reproduction: NAE / NAE
  Seminal vesicles HP: NAE / NAE
  Seminal vesicles weight: NAE / NAE
  Sperm morphology: NAE / NAE
  Sperm motility: NAE / NAE
  Sperm numbers: NAE / NAE
  Testis HP: NAE / NAE
  Testis weight: NAE / NAE
  Thyroid HP: NAE / NAE
  Thyroid stimulating hormone level: NAE / NAE
  Thyroid weight: NAE / NAE
  Time to mating: NAE / NAE
  Triiodothyronine / thyroxine level: NAE / NAE
  Uterus HP (with cervix): NAE / NAE
  Uterus weight (with cervix): NAE / NAE
  Vagina HP: NAE / NAE
  Vaginal smears: NAE / NAE
Wistar rats [2]; all dose groups, within historical control, assessed as not toxicologically relevant
  Anogenital distance, female pups PND 0: minimal lower absolute and relative anogenital distance
Wistar rats [2]; parental animals, assessed as not toxicologically relevant
  Clinical biochemistry parameters: few marginal but statistically significant differences
Wistar rats [2]; parental females (and F1 males) of high dose group, assessed as not toxicologically relevant
  Thyroid stimulating hormone: slight but statistically significantly higher group mean thyroid stimulating hormone values
Wistar rats [2]; up to 1000 mg/kg bw/day
  Alterations of the parameters addressed in OECD TG 443: no toxicologically relevant alterations
Wistar rats [2]; without toxicological relevance
  Local reactions after gavage: Transient increased salivation
In vivo; female, 500 mg/kg
  concentration at 1 h: 68 ng/mL
  Tmax: 15 min
  Cmax: 1390 ng/mL
In vivo; female, 1000 mg/kg
  concentration at 1 h: 20.2 ng/mL
  Tmax: 10.2 min
  Cmax: 940 ng/mL
In vivo; female, 500 mg/kg, AUC0-1 h
  AUC(0-t): 291 ng·h/mL
In vivo; female, 500 mg/kg, AUC0–t
  AUC(0-t): 1120 ng·h/mL
In vivo; female, 1000 mg/kg, AUC0-1 h
  AUC(0-t): 156 ng·h/mL
In vivo; female, 1000 mg/kg, AUC0–t
  AUC(0-t): 317 ng·h/mL
In vivo; male, 500 mg/kg
  concentration at 1 h: 23 ng/mL
  Tmax: 10.2 min
  Cmax: 345 ng/mL
In vivo; male, 1000 mg/kg
  concentration at 1 h: 62.3 ng/mL
  Tmax: 10.2 min
  Cmax: 735 ng/mL
In vivo; male, 500 mg/kg, AUC0-1 h
  AUC(0-t): 94.9 ng·h/mL
In vivo; male, 500 mg/kg, AUC0–t
  AUC(0-t): 150 ng·h/mL
In vivo; male, 1000 mg/kg, AUC0-1 h
  AUC(0-t): 175 ng·h/mL
In vivo; male, 1000 mg/kg, AUC0–t
  AUC(0-t): 380 ng·h/mL
In vivo; 500 mg/kg, female
  AUC0-1 h/AUC0–t: 26%
  C1h/Cmax: 4.9%
  Clast: 136 ng/mL
  tlast: 8.0 h
In vivo; 500 mg/kg, male
  AUC0-1 h/AUC0–t: 63%
  C1h/Cmax: 6.7%
  Clast: 13.6 ng/mL
  tlast: 4.0 h
In vivo; 1000 mg/kg, female
  AUC0-1 h/AUC0–t: 49%
  C1h/Cmax: 2.1%
  Clast: 11.6 ng/mL
  tlast: 8.0 h
In vivo; 1000 mg/kg, male
  AUC0-1 h/AUC0–t: 46%
  C1h/Cmax: 8.5%
  Clast: 14.3 ng/mL
  tlast: 8.0 h
